Data from the supplement of paper PMC11061612.

Tests used:
[1] = tested on: HCC1954 (Breast Carcinoma); assay: combination Emax (second highest fraction inhibited in the dose matrix, 72 h); higher = more inhibition; extreme values may be limits of the assay
How it was run: (§1)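 After 24 hours at 37°C and 5% CO2 in 1536-well plates, cells in DMEM/F12 or RPMI plus 10% FBS received two-drug dose matrices for 72 hours. Viability came from CellTiter-Glo 2.0 luminescence and was scaled as inhibition, anchored at 0 by vehicle wells and at 1 by blank wells. Combination Emax is taken as the second-highest inhibition in the matrix, and Bliss excess as the observed combination effect less EA + EB − EA·EB, with EA and EB the single-agent effects.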

[2] = tested on: ONS-76 (Other Solid Carcinomas); assay: as above
How it was run: as §1

[3] = tested on: KARPAS-422 (B-Cell Non-Hodgkin's Lymphoma); assay: as above
How it was run: as §1

[4] = tested on: 8-MG-BA (Glioblastoma); assay: as above
How it was run: as §1

[5] = tested on: TT2609-C02 (Thyroid Gland Carcinoma); assay: as above
How it was run: as §1

[6] = tested on: A3-KAW (B-Cell Non-Hodgkin's Lymphoma); assay: as above
How it was run: as §1

[7] = tested on: COLO-824 (Breast Carcinoma); assay: as above
How it was run: as §1

[8] = tested on: NCI-H1581 (Non-Small Cell Lung Carcinoma); assay: as above
How it was run: as §1

[9] = tested on: GI-ME-N (Neuroblastoma); assay: as above
How it was run: as §1

[10] = tested on: VCaP (Prostate Carcinoma); assay: as above
How it was run: as §1

[11] = tested on: JSC-1 (B-Cell Non-Hodgkin's Lymphoma); assay: as above
How it was run: as §1

[12] = tested on: A549 (Lung Adenocarcinoma); assay: as above
How it was run: as §1

[13] = tested on: CCK-81 (Colorectal Carcinoma); assay: as above
How it was run: as §1

[14] = tested on: NCI-H2591 (Mesothelioma); assay: as above
How it was run: as §1

[15] = tested on: NCI-H2066 (Squamous Cell Lung Carcinoma); assay: as above
How it was run: as §1

[16] = tested on: NCI-H1650 (Lung Adenocarcinoma); assay: as above
How it was run: as §1

[17] = tested on: FU97 (Gastric Carcinoma); assay: as above
How it was run: as §1

[18] = tested on: COLO-320-HSR (Colorectal Carcinoma); assay: Bliss excess, mean over the matrix (fraction); higher = more synergy
How it was run: as §1

[19] = tested on: TT (Thyroid Gland Carcinoma); assay: as above
How it was run: as §1

[20] = tested on: OS-RC-2 (Kidney Carcinoma); assay: as above
How it was run: as §1
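Wherever Bliss excess, mean over the matrix is given: after 72 h of two-drug dosing.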

Structure (SMILES)	combination Emax [1]	combination Emax [2]	combination Emax [3]	combination Emax [4]	combination Emax [5]	combination Emax [6]	combination Emax [7]	combination Emax [8]	combination Emax [9]	combination Emax [10]	combination Emax [11]	combination Emax [12]	combination Emax [13]	combination Emax [14]	combination Emax [15]	combination Emax [16]	combination Emax [17]	Bliss excess [18]	Bliss excess [19]	Bliss excess [20]
C=CCn1c(=O)c2cnc(Nc3ccc(N4CCN(C)CC4)cc3)nc2n1-c1cccc(C(C)(C)O)n1 [AZD1775] + C1CN(CCC1(C(=O)N[C@@H](CCO)C2=CC=C(C=C2)Cl)N)C3=NC=NC4=C3C=CN4 [Capivasertib] (first compound max 3 µM, partner max 3 µM)	0.914	0.76	0.856	0.975	0.466	0.987	0.79	0.857	0.451	0.647	0.911	0.664	0.85	0.178	0.685	0.61	0.471	-0.0314	-0.0079	-0.085
C=CCn1c(=O)c2cnc(Nc3ccc(N4CCN(C)CC4)cc3)nc2n1-c1cccc(C(C)(C)O)n1 [AZD1775] + O=C(c1cc(Cc2n[nH]c(=O)c3ccccc23)ccc1F)N1CCN(C(=O)C2CC2)CC1 [Olaparib] (first compound max 1 µM, partner max 10 µM)	0.218	0.662	0.678	0.77	0.358	0.944	0.685	0.568	0.337	0.631	0.856	0.458	0.894	0.253	0.377	0.403	0.281	-0.0404	-0.0543	-0.0981
CCN(CCO)CCCOc1ccc2c(Nc3cc(CC(=O)Nc4cccc(F)c4)[nH]n3)ncnc2c1 [AZD2811] + C=CCn1c(=O)c2cnc(Nc3ccc(N4CCN(C)CC4)cc3)nc2n1-c1cccc(C(C)(C)O)n1 [AZD1775] (first compound max 1 µM, partner max 1 µM)	0.161	0.607	0.569	0.744	0.361	0.902	0.813	0.688	0.29	0.558	0.809	0.599	0.849	0.194	0.203	0.346	0.219	-0.0465	-0.0155	-0.0231
CCN(CCO)CCCOc1ccc2c(Nc3cc(CC(=O)Nc4cccc(F)c4)[nH]n3)ncnc2c1 [AZD2811] + C[C@@H]1COCCN1C2=NC(=NC(=C2)C3(CC3)[S@](=N)(=O)C)C4=C5C=CNC5=NC=C4 [AZD6738] (first compound max 1 µM, 7x7, partner max 10 µM)	0.39	0.908	0.565	0.785	0.331	0.968	0.802	0.474	0.552	0.289	0.744	0.775	0.891	0.315	0.339	0.414	0.373	-0.0366	-0.0905	-0.0449
CCN(CCO)CCCOc1ccc2c(Nc3cc(CC(=O)Nc4cccc(F)c4)[nH]n3)ncnc2c1 [AZD2811] + O=C(c1cc(Cc2n[nH]c(=O)c3ccccc23)ccc1F)N1CCN(C(=O)C2CC2)CC1 [Olaparib] (first compound max 1 µM, 7x7, partner max 10 µM)	0.152	0.398	0.375	0.52	0.299	0.688	0.797	0.344	0.196	0.224	0.213	0.58	0.254	0.182	0.214	0.249	0.332	-0.0179	-0.0596	-0.0261
CN(CCO)CC[C@H](CSc1ccccc1)Nc1ccc(S(=O)(=O)NC(=O)c2ccc(N3CCC([C@@H](O)c4ccccc4-c4ccc(Cl)cc4)CC3)cc2)cc1S(=O)(=O)C(F)(F)F [AZD4320] + C1CN(CCC1(C(=O)N[C@@H](CCO)C2=CC=C(C=C2)Cl)N)C3=NC=NC4=C3C=CN4 [Capivasertib] (first compound max 1 µM, 7x7, partner max 3 µM)	0.902	0.221	0.989	0.291	0.0697	0.367	1	0.0979	0.153	0.404	0.124	0.354	0.135	0.101	0.923	0.143	0.418	-0.0136	-0.0456	-0.0547
CN(CCO)CC[C@H](CSc1ccccc1)Nc1ccc(S(=O)(=O)NC(=O)c2ccc(N3CCC([C@@H](O)c4ccccc4-c4ccc(Cl)cc4)CC3)cc2)cc1S(=O)(=O)C(F)(F)F [AZD4320] + C=CCn1c(=O)c2cnc(Nc3ccc(N4CCN(C)CC4)cc3)nc2n1-c1cccc(C(C)(C)O)n1 [AZD1775] (first compound max 1 µM, partner max 1 µM)	0.718	0.726	0.978	0.785	0.722	0.892	1	0.475	0.334	0.717	0.904	0.384	0.775	0.159	0.646	0.403	0.454	-0.0268	-0.0048	-0.0254
CN(CCO)CC[C@H](CSc1ccccc1)Nc1ccc(S(=O)(=O)NC(=O)c2ccc(N3CCC([C@@H](O)c4ccccc4-c4ccc(Cl)cc4)CC3)cc2)cc1S(=O)(=O)C(F)(F)F [AZD4320] + CCN(CCO)CCCOc1ccc2c(Nc3cc(CC(=O)Nc4cccc(F)c4)[nH]n3)ncnc2c1 [AZD2811] (first compound max 1 µM, 7x7, partner max 1 µM)	0.851	0.589	0.903	0.21	0.505	0.371	1	0.445	0.19	0.194	0.341	0.446	0.178	0.561	0.543	0.254	0.177	-0.0087	0.0345	-0.0659
CN(CCO)CC[C@H](CSc1ccccc1)Nc1ccc(S(=O)(=O)NC(=O)c2ccc(N3CCC([C@@H](O)c4ccccc4-c4ccc(Cl)cc4)CC3)cc2)cc1S(=O)(=O)C(F)(F)F [AZD4320] + C[C@@H]1COCCN1C2=NC(=NC(=C2)C3(CC3)[S@](=N)(=O)C)C4=C5C=CNC5=NC=C4 [AZD6738] (first compound max 1 µM, 7x7, partner max 10 µM)	0.734	0.877	0.979	0.864	0.25	0.986	1	0.364	0.499	0.577	0.888	0.777	0.828	0.612	0.603	0.532	0.383	0.0161	-0.033	-0.0807
CN(CCO)CC[C@H](CSc1ccccc1)Nc1ccc(S(=O)(=O)NC(=O)c2ccc(N3CCC([C@@H](O)c4ccccc4-c4ccc(Cl)cc4)CC3)cc2)cc1S(=O)(=O)C(F)(F)F [AZD4320] + C[C@@H](Nc1cc(F)cc(F)c1)c1cc(C(=O)N(C)C)cc2c(=O)cc(N3CCOCC3)oc12 [AZD8186] (first compound max 1 µM, 7x7, partner max 3 µM)	0.546	0.338	0.999	0.316	0.294	0.761	1	0.287	0.469	0.37	0.546	0.401	0.338	0.214	0.64	0.402	0.507	0.0504	-0.061	-0.0197
CN(CCO)CC[C@H](CSc1ccccc1)Nc1ccc(S(=O)(=O)NC(=O)c2ccc(N3CCC([C@@H](O)c4ccccc4-c4ccc(Cl)cc4)CC3)cc2)cc1S(=O)(=O)C(F)(F)F [AZD4320] + Cn1cnc2c(F)c(Nc3ccc(Br)cc3Cl)c(C(=O)NOCCO)cc21 [Selumetinib] (first compound max 1 µM, 7x7, partner max 3 µM)	0.617	0.628	0.875	0.367	0.546	0.861	1	0.4	0.345	0.208	0.707	0.671	0.491	0.242	0.71	0.318	0.544	0.0102	-0.033	0.0178
COc1nnc2ccc(N3CCC(c4ccc(OCCN5CCN(C)C(=O)[C@H]5C)cc4)CC3)nn12 [AZD5153] + C=CCn1c(=O)c2cnc(Nc3ccc(N4CCN(C)CC4)cc3)nc2n1-c1cccc(C(C)(C)O)n1 [AZD1775] (first compound max 1 µM, partner max 1 µM)	0.306	0.601	0.888	0.801	0.622	1	0.863	0.866	0.393	0.767	0.901	0.885	0.869	0.448	0.475	0.477	0.792	-0.0801	-0.0629	-0.0324
